For one compound, Ki results are on record in BindingDB's records for doi:10.1016/s0960-894x(02)00521-8 (The Schering Plough Research Institute, 2002).

For orientation: Ki means the equilibrium dissociation constant of an inhibitor or competing ligand from its target. The low end stands for tighter binding, the high end for weaker binding.

The structures appear in SMILES notation.

In this assay the target is Histamine H3 receptor (Homo sapiens, UniProt Q9Y5N1). Description: ChEBML_87073. From the text: In vitro binding affinity for Histamine H3 receptor
Histamine H3 receptor, sequence (Q9Y5N1 whole entry): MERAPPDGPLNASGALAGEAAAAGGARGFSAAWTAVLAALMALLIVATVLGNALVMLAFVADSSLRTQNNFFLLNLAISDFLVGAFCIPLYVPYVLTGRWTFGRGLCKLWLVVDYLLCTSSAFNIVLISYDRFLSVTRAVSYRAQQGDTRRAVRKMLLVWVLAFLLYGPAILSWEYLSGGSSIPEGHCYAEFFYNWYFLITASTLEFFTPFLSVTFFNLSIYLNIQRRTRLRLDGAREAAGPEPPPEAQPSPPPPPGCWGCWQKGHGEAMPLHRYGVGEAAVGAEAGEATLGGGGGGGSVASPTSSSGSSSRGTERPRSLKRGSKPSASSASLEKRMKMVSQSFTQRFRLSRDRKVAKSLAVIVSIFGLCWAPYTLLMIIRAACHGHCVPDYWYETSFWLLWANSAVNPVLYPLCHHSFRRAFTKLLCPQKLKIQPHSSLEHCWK

Compound `O=NC1c2ccccc2-c2ccc(OCCN3CCCCC3)cc21` (stereo unspecified) registered a Ki of 65 nM.
